In data set [1] the test system is Diabrotica balteata (Corn Root Worm). The data set is described as follows: Example B2: Diabrotica balteata, sprayed maize sprouts, L2 larvae. The data set is classed as in vivo. Particulars: for percent effect (mortality or growth inhibition) at 200 ppm: Diabrotica balteata, 96 h, application rate of 200 ppm, 4 days after infestation, L2 larvae, read-out: effect in at least one of the two categories (mortality or growth inhibition). Here is the method: Example B2: Diabrotica balteata (Corn Root Worm)
Maize sprouts placed onto an agar layer in 24-well microtiter plates were treated with aqueous test solutions prepared from 10,000 ppm DMSO stock solutions by spraying. After drying, the plates were infested with L2 larvae (6 to 10 per well). The samples were assessed for mortality and growth inhibition in comparison to untreated samples 4 days after infestation. The following compounds gave an effect of at least 80% in at least one of the two categories (mortality or growth inhibition) at an application rate of 200 ppm:
(§1) Insecticidal action against Diabrotica balteata (Corn root worm), Plutella xylostella (Diamond black moth), and Spodoptera littoralis (Egyptian cotton leaf worm). The tests were carried out as described in biological examples B2, B8 and B9, respectively, with the larval feeding/contact activity (mortality only) being reported as Breakpoint (BP80) values in parts per million (i.e. the lowest concentration which gives 80% larval mortality).

The subject of data set [2] is Plutella xylostella (Diamond Back Moth). Put plainly: Example B8: Plutella xylostella, artificial diet, L2 larvae. The format is in vivo. Particulars: for percent effect (mortality or growth inhibition) at 200 ppm: Plutella xylostella, 120 h, application rate of 200 ppm, 5 days after infestation, L2 larvae, read-out: effect in at least one of the two categories (mortality or growth inhibition). Here is the method: Example B8: Plutella xylostella (Diamond Back Moth)
24-well microtiter plates with artificial diet were treated with aqueous test solutions prepared from 10,000 ppm DMSO stock solutions by pipetting. After drying, the plates were infested with L2 larvae (10 to 15 per well). The samples were assessed for mortality and growth inhibition in comparison to untreated samples 5 days after infestation. The following compounds gave an effect of at least 80% in at least one of the two categories (mortality or growth inhibition) at an application rate of 200 ppm:
as §1

In data set [3] the test system is Spodoptera littoralis (Egyptian Cotton Leaf Worm). The data set is described as follows: Example B9: Spodoptera littoralis, cotton leaf discs, L1 larvae. The data set is classed as in vivo. The settings on record: for percent control (mortality, anti-feedant effect or growth inhibition) at 200 ppm: Spodoptera littoralis, foliar, 72 h, application rate of 200 ppm, 3 days after infestation, L1 larvae. As for the experimental part:
Example B9: Spodoptera littoralis (Egyptian Cotton Leaf Worm)
Cotton leaf discs were placed onto agar in 24-well microtiter plates and sprayed with aqueous test solutions prepared from 10,000 ppm DMSO stock solutions. After drying the leaf discs were infested with five L1 larvae. The samples were assessed for mortality, anti-feeding effect, and growth inhibition in comparison to untreated samples 3 days after infestation. Control of Spodoptera littoralis by a test sample is given when at least one of the categories mortality, anti-feedant effect, and growth inhibition is higher than the untreated sample.
as §1

For data set [4] the test system is unchanged. The data set is described as follows: Example B10: Spodoptera littoralis systemic activity, lettuce grown on treated agar. The format is in vivo. The settings on record: 144 h, test rate of 12.5 ppm, 6 days after infestation, read-out: effect in at least one of the three categories (mortality, anti-feeding, or growth inhibition). The text has this: Example B10: Spodoptera littoralis (Egyptian Cotton Leaf Worm) Systemic Activity
Test compounds were applied by pipette from 10,000 ppm DMSO stock solutions into 24-well plates and mixed with agar. Lettuce seeds were placed onto the agar and the multi well plate was closed by another plate which contained also agar. After 7 days the compound was absorbed by the roots and the lettuce grew into the lid plate. The lettuce leaves were then cut off into the lid plate. Spodoptera eggs were pipetted through a plastic stencil onto a humid gel blotting paper and the lid plate was closed with it. The samples were assessed for mortality, anti-feedant effect and growth inhibition in comparison to untreated samples 6 days after infestation. The following compounds gave an effect of at least 80% in at least one of the three categories (mortality, anti-feeding, or growth inhibition) at a test rate of 12.5 ppm: […]

In data set [5] the test system is Euschistus heros (Neotropical Brown Stink Bug). The data set is described as follows: Example B3: Euschistus heros, sprayed soybean leaves, N2 nymphs. The data set is classed as in vivo. The settings on record: 120 h, application rate of 200 ppm, 5 days after infestation, read-out: effect in at least one of the two categories (mortality or growth inhibition). Here is the method:
Example B3: Euschistus heros (Neotropical Brown Stink Bug)
Soybean leaves on agar in 24-well microtiter plates were sprayed with aqueous test solutions prepared from 10,000 ppm DMSO stock solutions. After drying the leaves were infested with N2 nymphs. The samples were assessed for mortality and growth inhibition in comparison to untreated samples 5 days after infestation. The following compounds gave an effect of at least 80% in at least one of the two categories (mortality or growth inhibition) at an application rate of 200 ppm: […]

In data set [6] the test system is Myzus persicae (Green Peach Aphid). The data set is described as follows: Example B5: Myzus persicae feeding/contact activity, sunflower leaf discs. The format is in vivo. Particulars: foliar, 144 h, application rate of 200 ppm, 6 days after infestation. Here is the method: Example B5: Myzus persicae (Green Peach Aphid): Feeding/Contact Activity
Sunflower leaf discs were placed onto agar in a 24-well microtiter plate and sprayed with aqueous test solutions prepared from 10,000 ppm DMSO stock solutions. After drying, the leaf discs were infested with an aphid population of mixed ages. The samples were assessed for mortality 6 days after infestation.

In data set [7] the test system is Bemisia tabaci (Cotton White Fly). The data set is described as follows: Example B1: Bemisia tabaci feeding/contact activity, cotton leaf discs. The format is in vivo. Particulars: foliar, 144 h, application rate of 200 ppm, 6 days after incubation, adult white flies. As for the experimental part:
Example B1: Bemisia tabaci (Cotton White Fly): Feeding/Contact Activity
Cotton leaf discs were placed on agar in 24-well microtiter plates and sprayed with aqueous test solutions prepared from 10,000 ppm DMSO stock solutions. After drying the leaf discs were infested with adult white flies. The samples were checked for mortality 6 days after incubation.

Data set [8] has as its system Frankliniella occidentalis (Western Flower thrips). Put plainly: Example B4: Frankliniella occidentalis feeding/contact activity, sunflower leaf discs. The format is in vivo. Particulars: foliar, 168 h, application rate of 200 ppm, 7 days after infestation, population of mixed ages. As for the experimental part:
Example B4: Frankliniella occidentalis (Western Flower thrips): Feeding/Contact Activity
Sunflower leaf discs were placed on agar in 24-well microtiter plates and sprayed with aqueous test solutions prepared from 10,000 DMSO stock solutions. After drying the leaf discs were infested with a Frankliniella population of mixed ages. The samples were assessed for mortality 7 days after infestation.

By melting point is commonly meant the temperature, or range, at which the solid turns liquid. Molecule `CCS(=O)(=O)c1ncsc1-c1nc2cc(C(F)(F)F)ncc2n1C` [Example I-2] displayed a melting point of 169 to 171 °C.

For the molecule `CCS(=O)(=O)c1nc(Br)sc1-c1nc2cc(C(F)(F)F)ncc2n1C` [Example I-4, 2-bromo-4-ethylsulfonyl-5-[3-methyl-6-(trifluoromethyl)imidazo[4,5-c]pyridin-2-yl]thiazole], the melting point was 248 to 250 °C.

With `CCS(=O)(=O)c1cc(I)sc1-c1nc2cc(C(F)(F)F)nnc2n1C` [Example I-6, 6-(3-ethylsulfonyl-5-iodo-2-thienyl)-7-methyl-3-(trifluoromethyl)imidazo[4,5-c]pyridazine], the percent effect (mortality or growth inhibition) at 200 ppm in data set [1] and in [2] was no less than 80% in each case. The percent control (mortality, anti-feedant effect or growth inhibition) at 200 ppm in data set [3] was no less than 80%. The percent effect (mortality, anti-feeding or growth inhibition) at 12.5 ppm in data set [4] is no less than 80%.

The molecule `CCSc1cc(I)sc1-c1nc2cc(C(F)(F)F)ncc2n1C` [Example I-12, 2-(3-ethylsulfanyl-5-iodo-2-thienyl)-3-methyl-6-(trifluoromethyl)imidazo[4,5-c]pyridine] had a melting point of 61 to 63 °C.

For orientation: mortality means the share of the test organisms that died. The low end stands for a weak lethal effect, the high end for a strong lethal effect. Take `CCS(=O)(=O)c1cc(-c2ccc(C(F)(F)F)cc2)sc1-c1nc2cc(C(F)(F)F)ncc2n1C` [Example P-1, 2-[3-ethylsulfonyl-5-[4-(trifluoromethyl)phenyl]-2-thienyl]-3-methyl-6-(trifluoromethyl)imidazo[4,5-c]pyridine]: the percent effect (mortality or growth inhibition) at 200 ppm in data set [1], in [5] and in data set [2] was no less than 80% throughout. In addition, the “BP80 (Breakpoint, lowest concentration which gives 80% larval mortality) Diabrotica balteata” value in data set [1] (larval feeding/contact activity, mortality only, test as in B2) worked out at 0.8 ppm. The mortality at 200 ppm in data set [6] is no less than 80%. Moreover, in [2] (larval feeding/contact activity, mortality only, test as in B8), the “BP80 (Breakpoint, lowest concentration which gives 80% larval mortality) Plutella xylostella” value is on record as 0.8 ppm. Besides, the percent control (mortality, anti-feedant effect or growth inhibition) at 200 ppm in data set [3] was no less than 80%. Also, the “BP80 (Breakpoint, lowest concentration which gives 80% larval mortality) Spodoptera littoralis” value in data set [3] (larval feeding/contact activity, mortality only, test as in B9) came out at 0.8 ppm. For the same molecule, in [4], the percent effect (mortality, anti-feeding or growth inhibition) at 12.5 ppm was no less than 80%.

On to `CCS(=O)(=O)c1nc(-c2ccc(Cl)cc2)sc1-c1nc2cc(C(F)(F)F)ncc2n1C` [Example P-4, 2-(4-chlorophenyl)-4-ethylsulfonyl-5-[3-methyl-6-(trifluoromethyl)imidazo[4,5-c]pyridin-2-yl]thiazole], for which the mortality at 200 ppm in [7], in data set [8] and in data set [6] was no less than 80% throughout. For the same molecule, the percent effect (mortality or growth inhibition) at 200 ppm in data set [1], in data set [5] and in [2] was no less than 80% each time. Besides, in data set [3], the percent control (mortality, anti-feedant effect or growth inhibition) at 200 ppm is no less than 80%. In data set [4], the percent effect (mortality, anti-feeding or growth inhibition) at 12.5 ppm is no less than 80%.

As to `CCSc1nc(-c2ncccn2)sc1-c1nc2cc(C(F)(F)F)ncc2n1C` [Example P-11], the melting point was 230 to 232 °C.

With `CCSc1cc(-c2ccc(Cl)cc2)sc1-c1nc2cc(C(F)(F)F)nnc2n1C` [Example P-17, 6-[5-(4-chlorophenyl)-3-ethylsulfanyl-2-thienyl]-7-methyl-3-(trifluoromethyl)imidazo[4,5-c]pyridazine], the melting point lay in the range of 205 to 207 °C.
